Assay results published in patent publication US20130023555A1, “KINASE INHIBITOR WITH IMPROVED SOLUBILITY PROFILE” (Abbott Laboratories, priority 2011, published 2013).
Converted amounts (≈) assume the structure as drawn.

Key:
[1] = Determination of Thermodynamic Solubility; format: physicochemical; conditions: PEG 300, 25 °C, organic solvent or mixture, thermodynamic from solid, PEG 300, Example 2 at 25° C., Example 1 at ambient temperature, read-out: Solubility (PEG300)
Method: Aqueous pH 7.4 and PEG 300 samples were tested at 25° C. Excess amount of the bulk drug was weighed out and mixed with an aliquot of target media in a clear glass vial (n=3/solvent). The vial was capped, wrapped with aluminum foil, and tumbled in a 25° C. water bath. When equilibration was completed, the samples were removed from the water bath and the final pH was measured, if applicable. The samples were centrifuged at 25° C. at 3000 rpm for 20 minutes. The supernatant was filtered through 4 mm 0.45 μm PTFE syringe filters. The filtrate was assayed after appropriate dilution (no dilution required for aqueous samples). The concentration of the sample was calculated against a calibration curve for the compound.
Solubility in pH 7.4 buffer was carried out as described above, except samples were not centrifuged before filtration. All other experimental steps were the same. PEG 300 and PEG 400 solubility were done at ambient temperature. Excess amount of the bulk drug was weighed out and mixed with an aliquot of target media in a clear glass vial with a small stir bar (n=3). The vials were placed on the stirrer at ˜500 rpm and allowed to equilibrate over the weekend. Samples were filtered through 13 mm 0.45 μm GHP syringe filters. The filtrate was assayed after appropriate dilutions, and concentrations determined against a calibration curve for the compound.

[2] = CLND Solubility Assay; format: physicochemical
Method: Chemiluminescent nitrogen detection (CLND) method oxidized the analyte to nitrogen oxide that reacted with ozone to provide a photon of light and was a measure of how much compound was in solution. Compounds must contain nitrogens for this experiment. Nitrogen impurities present in the compound will cause falsely high results. • 1. Compound concentration tested was 35 μM in 10 mM phosphate buffer, 7.2. • 2. Compounds were tested in triplicate. • 3. Compound concentration was determined by comparing readings to a caffeine standard curve. One standard curve was run before and after every test plate. For 3 test plates, four standard curves were generated.
Experimental Procedure: • 1. 5 μl of 5 mM test compound in DMSO was added to three adjacent wells in a plate. • 2. 695 μl of 10 mM phosphate buffer, pH 7.2, was added to each well. • 3. The plates were sealed. • 4. The plates were allowed to sonicate for 1 hour. • 5. The plates were shook on a plate orbital shaker for up to 6 hours. • 6. The plates were spinned at 5000 rpm (6000×G) overnight. • 7. Standard curves were prepared by adding 5 μl of stock solutions to wells according to Caffeine Concentrations for Standard Curve table below. • 8. Buffer (10 mM phosphate buffer, pH 7.2, 695 μl) was added. • 9. The plates were sealed. • 10. The plates were loaded onto a TOC/CLND. • 11. The results were analyzed after the run was completed.
The solubility was determined by comparing the reading generated by analysis of the sample to the standard curve. The value was then divided by the number of nitrogens contained in the compound. Corrections for impurities during the synthesis were included in the number of nitrogens. The resulting value was the reported solubility.

[3] = target: T1, cKIT (Homo sapiens, UniProt P10721); assay: HTRF in vitro kinase assay, cKIT; format: biochemical; conditions: 1 mM ATP
T1 construct: GST
Method: (§1) To determine the activity of the various kinases, a homogenous time-resolved fluorescence (HTRF) in vitro kinase assay was used. (Mathis, G., HTRF(R) Technology. J Biomol Screen, 1999. 4(6): p. 309-314; Alfred J. Kolb, Paul V. Kaplita, David J. Hayes, Young-Whan Park, Christine Pernell, John S. Major and Gerard Mathis, Drug Discovery Today, 1998, 3, 333-342.)
For example for KDR, cKIT, FLT1, CSF1R and FTL3, purified enzyme was mixed with 0.5 μM N-biotinylated substrate (Biotin-Ahx-[…]-amide (SEQ. ID. 1)), various concentrations of inhibitor in reaction buffer (50 mM HEPES, pH 7.1, 10 mM MgCl2, 2 mM MnCl2, 0.1% BSA and 1 mM DTT, 40 μL final volume), ATP (1 mM final conc.) in a black 384-well plate. After 60 minutes incubation at room temperature, the reaction was quenched by addition of a buffered EDTA solution (final approximate concentrations: 30 mM EDTA, 0.1% BSA, 0.1% Triton X-100 and 0.24M KF) and a solution of revelation agents (to give 0.084 ng/well streptavidin-XL-665 (Cis-Bio) and 6.5 ng/well antiphsophotyrosine mAb PT66-K Europium kryptate) was added to the reaction mixture. The quenched reaction was allowed to stand at room temperature for 3 hours and was then read in a time-resolved fluorescence detector (InVision, Perkin-Elmer) at 620 nm and 665 nm sequentially with excitation. The ratio between the signal of 620 nm and 665 nm was used in the calculation of the IC50.

[4] = target: T2, FLT3 (Homo sapiens, UniProt P36888); assay: HTRF in vitro kinase assay, FLT3; format: biochemical; conditions: 1 mM ATP
T2 construct: FLT3 Q569- S993; M-His(6) (N)
T2 sequence (P36888 569-993): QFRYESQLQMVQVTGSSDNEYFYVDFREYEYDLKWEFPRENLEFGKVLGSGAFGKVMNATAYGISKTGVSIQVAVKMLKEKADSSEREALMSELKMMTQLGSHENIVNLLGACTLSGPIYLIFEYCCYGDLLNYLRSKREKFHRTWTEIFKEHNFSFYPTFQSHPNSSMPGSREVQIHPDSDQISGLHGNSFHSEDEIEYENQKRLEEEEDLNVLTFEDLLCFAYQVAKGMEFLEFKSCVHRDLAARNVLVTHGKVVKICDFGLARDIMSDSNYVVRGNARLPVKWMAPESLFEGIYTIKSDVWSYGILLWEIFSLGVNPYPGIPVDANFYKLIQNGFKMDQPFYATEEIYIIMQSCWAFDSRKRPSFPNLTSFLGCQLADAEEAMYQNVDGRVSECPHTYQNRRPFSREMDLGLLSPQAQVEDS
Method: as §1
For example for KDR, cKIT, FLT1, CSF1R and FTL3, purified enzyme was mixed with 0.5 μM N-biotinylated substrate (Biotin-Ahx-[…]-amide (SEQ. ID. 1)), various concentrations of inhibitor in reaction buffer (50 mM HEPES, pH 7.1, 10 mM MgCl2, 2 mM MnCl2, 0.1% BSA and 1 mM DTT, 40 μL final volume), ATP (1 mM final conc.) in a black 384-well plate. […] The quenched reaction was allowed to stand at room temperature for 3 hours and was then read in a time-resolved fluorescence detector (InVision, Perkin-Elmer) at 620 nm and 665 nm sequentially with excitation. The ratio between the signal of 620 nm and 665 nm was used in the calculation of the IC50.

T1 sequence (P10721 544-976 limits assumed): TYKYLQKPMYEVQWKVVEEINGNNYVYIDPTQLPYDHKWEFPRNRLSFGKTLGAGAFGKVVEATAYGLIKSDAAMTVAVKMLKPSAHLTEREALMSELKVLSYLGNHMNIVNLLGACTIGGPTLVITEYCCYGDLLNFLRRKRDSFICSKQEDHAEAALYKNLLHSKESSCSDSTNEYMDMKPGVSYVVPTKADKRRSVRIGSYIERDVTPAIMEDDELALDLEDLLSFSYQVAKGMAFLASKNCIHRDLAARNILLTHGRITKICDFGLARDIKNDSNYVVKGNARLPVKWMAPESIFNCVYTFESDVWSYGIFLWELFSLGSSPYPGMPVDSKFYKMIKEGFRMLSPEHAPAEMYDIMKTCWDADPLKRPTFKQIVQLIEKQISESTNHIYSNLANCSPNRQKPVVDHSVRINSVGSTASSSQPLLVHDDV

solubility [1]: 8400 µg/mL (≈ 19.5 mM) | solubility ([2]; aqueous buffer, kinetic from dmso stock, 35 μM compound in 10 mM phosphate buffer, pH 7.2): 6.03 µM (≈ 2.6 µg/mL) | aqueous solubility, in words ([2]; comment on Table 5): extremely low aqueous solubility | IC50 [3]: 6 nM | IC50 [4]: 2 nM
SMILES: CNC(=O)c1cnc(N)c2c(-c3ccc(NC(=O)Nc4cccc(C)c4)cc3)csc12 [Example 2, 4-amino-N-methyl-3-(4-{[(3-methylphenyl)carbamoyl]amino}phenyl)thieno[3,2-c]pyridine-7-carboxamide]
